Read-outs that look alike come from different tables or passages of the source. *1 amine or outer side, *2 acyl side, *3 side chain or, on linkers, in order; H or OH if unused. Where a SMILES comes first, the peptide text is derived from it. [ ]: non-standard residue; d: D form. The star is where a group is joined. Oic = O=C(O)[C@@H]1C[C@@H]2CCCC[C@@H]2N1; X2 = CCC[C@H](N[*:1])C(=O)C(=O)[*:2]; Pyrazinecarbonyl = O=C(c1cnccn1)*; Chg = N[C@H](C(=O)O)C1CCCCC1; Tle = CC(C)(C)[C@H](N)C(=O)O
Columns and labels:
[1] = target: HCV NS3-NS4A protease (tNS3 with KK4A) (Hepatitis C virus genotype 1a, UniProt P27958); test: HCV Ki assay (HPLC microbore separation of 5AB substrate and products); type: biochemical
Protocol: HPLC Microbore Method for Separation of 5AB Substrate and Products
• Substrate: • NH2-Glu-Asp-Val-Val-(alpha)Abu-Cys-Ser-Met-Ser-Tyr-COOH
A stock solution of 20 mM 5AB (or concentration of your choice) was made in DMSO w/ 0.2M DTT. This was stored in aliquots at −20 C.
Buffer: 50 mM HEPES, pH 7.8; 20% glycerol; 100 mM NaCl
Total assay volume was 100 μL
The buffer, KK4A, DTT, and tNS3 were combined; distributed 78 μL each into wells of 96 well plate. This was incubated at 30 C for ˜5–10 min.
2.5 μL of appropriate concentration of test compound was dissolved in DMSO (DMSO only for control) and added to each well. This was incubated at room temperature for 15 min.
Initiated reaction by addition of 20 μL of 250 μM 5AB substrate (25 μM concentration is equivalent or slightly lower than the Km for 5AB).
Incubated for 20 min at 30 C.
Terminated reaction by addition of 25 μL of 10% TFA
Transferred 120 μL aliquots to HPLC vials
Separated SMSY product from substrate and KK4A by the following method:
Microbore Separation Method:
Instrumentation: Agilent 1100
• Degasser G1322A • Binary pump G1312A • Autosampler G1313A • Column thermostated chamber G1316A • Diode array detector G1315A Column:
Phenomenex Jupiter; 5 micron C18; 300 angstroms; 150×2 mm; P/O 00F-4053-B0 • Column thermostat: 40 C • Injection volume: 100 μL • Solvent A=HPLC grade water+0.1% TFA • Solvent B=HPLC grade acetonitrile+0.1% TFA
• Stop time: 17 min • Post-run time: 10 min.

[2] = system: Cells containing hepatitis C virus (HCV) replicon; test: HCV replicon cell assay (Taqman RT-PCR of HCV RNA); type: cell-based; settings: 50% inhibition of HCV RNA level, 48-hour incubation, HCV replicon cells, read-out: IC50
Protocol: HCV Replicon Cell Assay Protocol
Cells containing hepatitis C virus (HCV) replicon were maintained in DMEM containing 10% fetal bovine serum (FBS), 0.25 mg per ml of G418, with appropriate supplements (media A).
On day 1, replicon cell monolayer was treated with a trypsin:EDTA mixture, removed, and then media A was diluted into a final concentration of 100,000 cells per ml wit. 10,000 cells in 100 ul were plated into each well of a 96-well tissue culture plate, and cultured overnight in a tissue culture incubator at 37° C.
On day 2, compounds (in 100% DMSO) were serially diluted into DMEM containing 2% FBS, 0.5% DMSO, with appropriate supplements (media B). The final concentration of DMSO was maintained at 0.5% throughout the dilution series.
Media on the replicon cell monolayer was removed, and then media B containing various concentrations of compounds was added. Media B without any compound was added to other wells as no compound controls.
Cells were incubated with compound or 0.5% DMSO in media B for 48 hours in a tissue culture incubator at 37° C. At the end of the 48-hour incubation, the media was removed, and the replicon cell monolayer was washed once with PBS and stored at −80° C. prior to RNA extraction.
Culture plates with treated replicon cell monolayers were thawed, and a fixed amount of another RNA virus, such as Bovine Viral Diarrhea Virus (BVDV) was added to cells in each well. RNA extraction reagents (such as reagents from RNeasy kits) were added to the cells immediately to avoid degradation of RNA. Total RNA was extracted according the instruction of manufacturer with modification to improve extraction efficiency and consistency. Finally, total cellular RNA, including HCV replicon RNA, was eluted and stored at −80° C. until further processing.
A Taqman real-time RT-PCR quantification assay was set up with two sets of specific primers and probe. One was for HCV and the other was for BVDV. Total RNA extractants from treated HCV replicon cells was added to the PCR reactions for quantification of both HCV and BVDV RNA in the same PCR well. Experimental failure was flagged and rejected based on the level of BVDV RNA in each well. The level of HCV RNA in each well was calculated according to a standard curve run in the same PCR plate. The percentage of inhibition or decrease of HCV RNA level due to compound treatment was calculated using the DMSO or no compound control as 0% of inhibition. The IC50 (concentration at which 50% inhibition of HCV RNA level is observed) was calculated from the titration curve of any given compound.

HCV NS3-NS4A protease (tNS3 with KK4A), sequence (P27958 1027-1208): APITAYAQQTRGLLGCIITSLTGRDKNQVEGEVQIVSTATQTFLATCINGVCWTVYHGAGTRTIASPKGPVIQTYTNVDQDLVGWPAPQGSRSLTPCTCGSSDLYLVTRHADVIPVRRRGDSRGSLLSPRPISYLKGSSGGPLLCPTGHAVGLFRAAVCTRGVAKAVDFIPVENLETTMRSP

Question: `CCC[C@H](NC(=O)[C@@H]1C[C@@H]2CCCC[C@@H]2N1C(=O)[C@@H](NC(=O)[C@@H](NC(=O)c1ccn[nH]1)C1CCCCC1)C(C)(C)C)C(=O)C(=O)NC1CC1` [Compound 15a] was tested. Which Ki [1] did it give?
Answer: The Ki was under 500 nM.

Question: What about the IC50 [2] of the same compound?
Answer: The IC50 was under 500 nM.

Question: What does the source list for `CCC[C@H](NC(=O)[C@@H]1C[C@@H]2CCCC[C@@H]2N1C(=O)[C@@H](NC(=O)[C@@H](NC(=O)c1cc(C(C)(C)C)n[nH]1)C1CCCCC1)C(C)(C)C)C(=O)C(=O)NC1CC1` [Compound 16a]?
Answer: Ki [1]: < 500 nM; IC50 [2]: 1000 to 5000 nM

Question: With `CCC[C@H](NC(=O)[C@@H]1C[C@@H]2CCCC[C@@H]2N1C(=O)[C@@H](NC(=O)[C@@H](NC(=O)c1ccnn1C)C1CCCCC1)C(C)(C)C)C(=O)C(=O)NC1CC1` [Compound 17a] as the compound, how does the Ki [1] read?
Answer: Its Ki is 1000 to 5000 nM.

Question: For `CCC[C@H](NC(=O)[C@@H]1C[C@@H]2CCCC[C@@H]2N1C(=O)[C@@H](NC(=O)[C@@H](NC(=O)c1cc2cc(F)ccc2[nH]1)C1CCCCC1)C(C)(C)C)C(=O)C(=O)NC1CC1` [Compound 18a], which Ki [1] is on record?
Answer: The Ki was under 500 nM.

Question: And the IC50 [2]?
Answer: Its IC50 is under 500 nM.

Question: Which Ki [1] does the source give for `CCC[C@H](NC(=O)[C@@H]1C[C@@H]2CCCC[C@@H]2N1C(=O)[C@@H](NC(=O)[C@@H](NC(=O)[C@@](C)(O)c1ccccc1)C1CCCCC1)C(C)(C)C)C(=O)C(=O)NC1CC1` [Compound 19a] here?
Answer: The Ki was under 500 nM.

Question: What about the IC50 [2] of the same compound?
Answer: The IC50 was 500 to 1000 nM.

Question: How did the Ki [1] turn out when `CCC[C@H](NC(=O)[C@@H]1C[C@@H]2CCCC[C@@H]2N1C(=O)[C@@H](NC(=O)[C@@H](NC(=O)c1nccnc1C(N)=O)C1CCCCC1)C(C)(C)C)C(=O)C(=O)NC1CC1` [Compound 28a] was run?
Answer: The Ki was under 500 nM.

Question: With `CCC[C@H](NC(=O)[C@@H]1C[C@@H]2CCCC[C@@H]2N1C(=O)[C@@H](NC(=O)[C@@H](NC(=O)c1[nH]ncc1Cl)C1CCCCC1)C(C)(C)C)C(=O)C(=O)NC1CC1` [Compound 38a] as the compound, how does the Ki [1] read?
Answer: The Ki was 500 to 1000 nM.

Question: How did the Ki [1] turn out when `CCC[C@H](NC(=O)[C@@H]1C[C@@H]2CCCC[C@@H]2N1C(=O)[C@@H](NC(=O)[C@@H](NC(=O)c1cnccn1)C1CCCCC1)C(C)(C)C)C(=O)C(=O)N(C)C` [Compound 50a] was run?
Answer: Its Ki is 1000 to 5000 nM.

Question: For `CCC[C@H](NC(=O)[C@@H]1C[C@@H]2CCCC[C@@H]2N1C(=O)[C@@H](NC(=O)[C@@H](NC(=O)c1cnccn1)C1CCCCC1)C(C)(C)C)C(=O)C(=O)NCC(=O)N(C)C` [Compound 54a] (Pyrazinecarbonyl-[Chg][Tle][Oic][X2]G-NMe2), which Ki [1] is on record?
Answer: Its Ki is 1000 to 5000 nM.

Question: How did the Ki ([1]; 25 nM tNS3, 25 μM KK4A, 25 μM 5AB substrate, 20 min at 30 C, read-out: Ki) turn out when `CCCC(NC(=O)[C@@H]1C[C@@H]2CCCC[C@@H]2N1C(=O)[C@@H](NC(=O)[C@@H](NC(=O)c1cnccn1)C1CCCCC1)C(C)(C)C)B1O[C@@H]2C[C@@H]3C[C@@H](C3(C)C)[C@]2(C)O1` (stereo partly drawn) [Compound 56a] was run?
Answer: The Ki was under 500 nM.

Question: Which Ki [1] does the source give for `CCC[C@H](NC(=O)[C@@H]1C[C@@H]2CCCC[C@@H]2N1C(=O)[C@@H](NC(=O)[C@H](C1CCCCC1)N1C(=O)c2ccccc2C1=O)C(C)(C)C)C(=O)C(=O)NC1CC1` [Compound 57a] here?
Answer: The Ki was under 500 nM.

Question: For `CCC[C@H](NC(=O)[C@@H]1C[C@@H]2CCCC[C@@H]2N1C(=O)[C@@H](NC(=O)[C@@H](NC(=O)c1[nH]c(C)c(C)c1C(C)=O)C(C)C)C(C)(C)C)C(=O)C(=O)NC1CC1` [Compound 58a], which Ki [1] is on record?
Answer: Its Ki is under 500 nM.

Question: For `CCC[C@H](NC(=O)[C@@H]1C[C@@H]2CCCC[C@@H]2N1C(=O)[C@@H](NC(=O)[C@@H](NC(=O)c1[nH]c(C)c(C)c1C(C)=O)C(C)CC)C(C)(C)C)C(=O)C(=O)NC1CC1` (stereo partly drawn) [Compound 59a], which Ki [1] is on record?
Answer: Its Ki is under 500 nM.

Question: With `CCC[C@H](NC(=O)[C@@H]1C[C@@H]2CCCC[C@@H]2N1C(=O)[C@@H](NC(=O)[C@@H](NC(=O)c1[nH]c(C)c(C)c1C(C)=O)C1CCCCC1)C(C)(C)C)C(=O)C(=O)C(C)C` [Compound 62a] as the compound, how does the Ki [1] read?
Answer: The Ki was 500 to 1000 nM.
